Molecular target: T1, human FXR (Homo sapiens, UniProt Q96RI1)
T1 construct: expressed in transfected cells; host or cells: HEK293 cells stably carrying a 5xGal4-response-element firefly luciferase reporter, transiently transfected with pcDNA3.1-Gal4-FXR
T1 sequence (Q96RI1 262-486 limits assumed): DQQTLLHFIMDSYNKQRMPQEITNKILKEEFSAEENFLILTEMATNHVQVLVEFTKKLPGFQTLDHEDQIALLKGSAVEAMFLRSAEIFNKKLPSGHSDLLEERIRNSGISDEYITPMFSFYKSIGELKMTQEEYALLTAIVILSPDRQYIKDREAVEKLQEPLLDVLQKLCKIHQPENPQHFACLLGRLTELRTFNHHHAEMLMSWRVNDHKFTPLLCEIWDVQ
Assay: transient human FXR/Gal4-luciferase reporter assay
Type: cell-based
Details: Gal4-hFXR LBD fusion, luciferase reporter in HEK293 cells; response relative to 8 μM GW-4064
Procedure: A Gal4-hFXR fusion construct reporter system was used as the primary assay to characterize compound activity. A construct including 5 copies of the Gal4 promoter response element upstream of a firefly luciferase reporter cDNA was stably expressed in HEK293 cells. This reporter cell line was maintained in Dulbecco's Modified Eagle's medium (DMEM; Gibco) supplemented with 1% penicillin-streptomycin (P/S) solution, 500 μg/mL Zeocin and 10% charcoal/dextran-treated fetal bovine serum (cs-FBS) at 37° C. in a humidified 5% CO2 atmosphere. […] The day prior to transfection, the reporter cells in culture are detached from the plate with trypsin and plated into a T75 flask at a sufficient density to achieve approximately 90% confluence the next morning. […] The mixture is further diluted with 10 mL of a solution comprised of DMEM, 10% cs-FBS, and 1% P/S immediately prior to transferring to the cells. The maintenance culture media is aspirated from the cells and the final transfection mixture is added before the cells are incubated overnight at 37° C. in a humidified 5% CO2 atmosphere. This protocol can be scaled up, and the transiently transfected cells can be cryopreserved in an assay-ready format. For compound testing, 100 nL of the compounds (serial dilutions in DMSO) are dispensed with an Echo acoustic dispenser (Labcyte) into the wells of a Corning/Costar clear bottom 384-well white plate. The transfected cells are harvested, counted, and diluted such that 10-25,000 cells in 25 μL are plated into each well of the 384-well compound assay plate. The compound-treated cells are incubated overnight at 37° C. in a humidified 5% CO2 atmosphere. The next morning 25 μL of Steady-Glo (Promega) are added to each well of the plate, the mixture is incubated for 15 min. with shaking, and luminescence is measured on an Envision (Perkin Elmer) plate reader.

In order of rising EC50:
1. O=C(C1CCC(F)(F)CC1)N(CC12CCC(c3nc(C4CC4)no3)(CC1)CC2)c1cccc(-c2cc(C3CC3)no2)c1 [Example 151, N-((4-(3-cyclopropyl-1,2,4-oxadiazol-5-yl)bicyclo[2.2.2]octan-1-yl)methyl)-N-(3-(3-cyclopropylisoxazol-5-yl)phenyl)-4,4-difluorocyclohexane-1-carboxamide]  38 nM
2. O=C(C1CCOCC1)N(CC12CCC(c3nc(C4CC4)no3)(CC1)CC2)c1cccc(-c2nc(CC3CC3)no2)c1 [Example 44, N-((4-(3-cyclopropyl-1,2,4-oxadiazol-5-yl)bicyclo[2.2.2]octan-1-yl)methyl)-N-(3-(3-(cyclopropylmethyl)-1,2,4-oxadiazol-5-yl)phenyl)tetrahydro-2H-pyran-4-carboxamide]  118 nM
3. CC(C)(C)c1noc(C23CCC(CN(C(=O)C4CCOCC4)c4cccc(-c5nc(C6CC6)no5)c4)(CC2)CC3)n1 [Example 69, N-((4-(3-(tert-butyl)-1,2,4-oxadiazol-5-yl)bicyclo[2.2.2]octan-1-yl)methyl)-N-(3-(3-cyclopropyl-1,2,4-oxadiazol-5-yl)phenyl)tetrahydro-2H-pyran-4-carboxamide]  162 nM
4. COCc1coc(-c2cccc(N(CC34CCC(c5nc(C6CC6)no5)(CC3)CC4)C(=O)C3CCOCC3)c2)n1 [Example 53, N-((4-(3-cyclopropyl-1,2,4-oxadiazol-5-yl)bicyclo[2.2.2]octan-1-yl)methyl)-N-(3-(4-(methoxymethyl)oxazol-2-yl)phenyl)tetrahydro-2H-pyran-4-carboxamide]  189 nM
5. COC(=O)c1noc(-c2cccc(N(CC34CCC(c5nc(C6CC6)no5)(CC3)CC4)C(=O)C3CCCCC3)c2)n1 [Example 2, Methyl 5-(3-(N-((4-(3-cyclopropyl-1,2,4-oxadiazol-5-yl)bicyclo[2.2.2]octan-1-yl)methyl)cyclohexanecarboxamido)phenyl)-1,2,4-oxadiazole-3-carboxylate]  211 nM
6. O=C(C1CCOCC1)N(CC12CCC(c3nc(CC4CC4)no3)(CC1)CC2)c1cccc(-c2nc(CC3CC3)no2)c1 [Example 41, N-((4-(3-(cyclopropylmethyl)-1,2,4-oxadiazol-5-yl)bicyclo[2.2.2]octan-1-yl)methyl)-N-(3-(3-(cyclopropylmethyl)-1,2,4-oxadiazol-5-yl)phenyl)tetrahydro-2H-pyran-4-carboxamide]  229 nM
7. Cc1nc2ccc(-c3cc(N(CC45CCC(c6noc(C(C)(F)F)n6)(CC4)CC5)C(=O)C4CCC(F)(F)CC4)ccc3F)cc2s1 [Example 108, N-((4-(5-(1,1-difluoroethyl)-1,2,4-oxadiazol-3-yl)bicyclo[2.2.2]octan-1-yl)methyl)-4,4-difluoro-N-(4-fluoro-3-(2-methylbenzo[d]thiazol-6-yl)phenyl)cyclohexane-1-carboxamide]  250 nM
8. CCOc1ccc(-c2cc(N(CC34CCC(c5noc(C(C)(F)F)n5)(CC3)CC4)C(=O)C3CCC(O)(C(F)(F)F)CC3)ccc2F)cc1 (single isomer, unassigned) [Example 165, N-((4-(5-(1,1-difluoroethyl)-1,2,4-oxadiazol-3-yl)bicyclo[2.2.2]octan-1-yl)methyl)-N-(4′-ethoxy-6-fluoro-[1,1′-biphenyl]-3-yl)-4-hydroxy-4-(trifluoromethyl)cyclohexane-1-carboxamide]  263 nM
9. O=C(C1CCOCC1)N(CC12CCC(c3nc(CC4CC4)no3)(CC1)CC2)c1cccc(-c2nc(C3CC3)no2)c1 [Example 45, N-(3-(3-cyclopropyl-1,2,4-oxadiazol-5-yl)phenyl)-N-((4-(3-(cyclopropylmethyl)-1,2,4-oxadiazol-5-yl)bicyclo[2.2.2]octan-1-yl)methyl)tetrahydro-2H-pyran-4-carboxamide]  278 nM
10. O=C(N1CCC(F)(F)CC1)N(CC12CCC(c3nc(C4CC4)no3)(CC1)CC2)c1cccc(-c2nc(C3CC3)no2)c1 [Example 58, N-((4-(3-cyclopropyl-1,2,4-oxadiazol-5-yl)bicyclo[2.2.2]octan-1-yl)methyl)-N-(3-(3-cyclopropyl-1,2,4-oxadiazol-5-yl)phenyl)-4,4-difluoropiperidine-1-carboxamide]  413 nM
11. Cc1nc2ccc(-c3cccc(N(CC45CCC(c6cc(C7CC7)nn6C)(CC4)CC5)C(=O)C4CCC(F)(F)CC4)c3)cc2s1 [Example 137, N-((4-(3-cyclopropyl-1-methyl-1H-pyrazol-5-yl)bicyclo[2.2.2]octan-1-yl)methyl)-4,4-difluoro-N-(3-(2-methylbenzo[d]thiazol-6-yl)phenyl)cyclohexane-1-carboxamide]  449 nM
12. COc1cc(-c2cccc(N(CC34CCC(c5nnc(C)s5)(CC3)CC4)C(=O)C3CCCCC3)c2)ccn1 [Example 80, N-(3-(2-methoxypyridin-4-yl)phenyl)-N-((4-(5-methyl-1,3,4-thiadiazol-2-yl)bicyclo[2.2.2]octan-1-yl)methyl)cyclohexanecarboxamide]  532 nM
13. CCOc1ccc(-c2cc(N(CC34CCC(c5noc(C(C)(F)F)n5)(CC3)CC4)C(=O)C3CCC(F)(F)CC3)ccc2F)cc1 [Example 105, N-((4-(5-(1,1-difluoroethyl)-1,2,4-oxadiazol-3-yl)bicyclo[2.2.2]octan-1-yl)methyl)-N-(4′-ethoxy-6-fluoro-[1,1′-biphenyl]-3-yl)-4,4-difluorocyclohexane-1-carboxamide]  637 nM
14. Cc1cn(-c2cccc(N(CC34CCC(c5nc(C(C)(C)C)no5)(CC3)CC4)C(=O)C3CCC(F)(F)CC3)c2)cn1 [Example 142, N-((4-(3-(tert-butyl)-1,2,4-oxadiazol-5-yl)bicyclo[2.2.2]octan-1-yl)methyl)-4,4-difluoro-N-(3-(4-methyl-1H-imidazol-1-yl)phenyl)cyclohexane-1-carboxamide]  721 nM
15. COc1nccc(-c2cccc(N(CC34CCC(c5nc(C6CC6)no5)(CC3)CC4)C(=O)C3CCC(F)(F)CC3)c2)n1 [Example 85, N-((4-(3-cyclopropyl-1,2,4-oxadiazol-5-yl)bicyclo[2.2.2]octan-1-yl)methyl)-4,4-difluoro-N-(3-(2-methoxypyrimidin-4-yl)phenyl)cyclohexane-1-carboxamide]  787 nM
16. CC1CCN(C(=O)N(CC23CCC(c4nc(C5CC5)no4)(CC2)CC3)c2cccc(-c3nc(C4CC4)no3)c2)CC1 [Example 60, N-((4-(3-cyclopropyl-1,2,4-oxadiazol-5-yl)bicyclo[2.2.2]octan-1-yl)methyl)-N-(3-(3-cyclopropyl-1,2,4-oxadiazol-5-yl)phenyl)-4-methylpiperidine-1-carboxamide]  1020 nM
17. CC1CN(C(=O)N(CC23CCC(c4nc(C5CC5)no4)(CC2)CC3)c2cccc(-c3nc(C4CC4)no3)c2)CC(C)O1 (stereo not drawn) [Example 63, N-((4-(3-cyclopropyl-1,2,4-oxadiazol-5-yl)bicyclo[2.2.2]octan-1-yl)methyl)-N-(3-(3-cyclopropyl-1,2,4-oxadiazol-5-yl)phenyl)-2,6-dimethylmorpholine-4-carboxamide]  1130 nM
18. COc1cc(-c2cccc(N(CC34CCC(C#N)(CC3)CC4)C(=O)C3CCCCC3)c2)ccn1 [Example 99, N-((4-cyanobicyclo[2.2.2]octan-1-yl)methyl)-N-(3-(2-methoxypyridin-4-yl)phenyl)cyclohexanecarboxamide]  1530 nM
19. CC(C)(F)c1nc(C23CCC(CN(C(=O)C4CCOCC4)c4cccc(-c5cn[nH]c(=O)c5)c4)(CC2)CC3)no1 [Example 128, N-((4-(5-(2-fluoropropan-2-yl)-1,2,4-oxadiazol-3-yl)bicyclo[2.2.2]octan-1-yl)methyl)-N-(3-(6-oxo-1,6-dihydropyridazin-4-yl)phenyl)tetrahydro-2H-pyran-4-carboxamide]  4000 nM
20. Cn1nc(C2CC2)cc1C12CCC(CN(C(=O)C3CCS(=O)(=O)CC3)c3cccc(-c4ccc(S(C)(=O)=O)cc4)c3)(CC1)CC2 [Example 135, N-((4-(3-cyclopropyl-1-methyl-1H-pyrazol-5-yl)bicyclo[2.2.2]octan-1-yl)methyl)-N-(4′-(methylsulfonyl)-[1,1′-biphenyl]-3-yl)tetrahydro-2H-thiopyran-4-carboxamide 1,1-dioxide]  4000 nM
21. COc1cccc(-c2cccc(N(C(=O)C3CCCCC3)C(C)C34CCC(c5nc(C)no5)(CC3)CC4)c2)c1 (single isomer, unassigned) [Example 95, N-(3′-methoxy-[1,1′-biphenyl]-3-yl)-N-(1-(4-(3-methyl-1,2,4-oxadiazol-5-yl)bicyclo[2.2.2]octan-1-yl)ethyl)cyclohexanecarboxamide]  6670 nM

Reference: patent publication US12227496B2 (BRISTOL-MYERS SQUIBB COMPANY, priority 2019, dated 2025)
